Measured values taken from US7868188B2, “5-heteroaryl thiazoles and their use as PI3K inhibitors” (AstraZeneca AB, priority 2004, dated 2011).

Experiments:
Test in all cases: PI 3-Kinase Assay (Additional Pharmacological Analysis, AlphaScreen)
Assay type in all cases: biochemical
Details in all cases: 40 μM ATP
[1] = target: T1, p110γ Type Ib human PI3K (Homo sapiens, UniProt P48736)
T1 construct: Residues 2-1102 of human PI3Kγ were inserted between the BamHI and Not1 cloning sites; His(6) (N); made in house; host or cells: baculovirus-infected Sf9 insect cells
T1 sequence (P48736 2-1102): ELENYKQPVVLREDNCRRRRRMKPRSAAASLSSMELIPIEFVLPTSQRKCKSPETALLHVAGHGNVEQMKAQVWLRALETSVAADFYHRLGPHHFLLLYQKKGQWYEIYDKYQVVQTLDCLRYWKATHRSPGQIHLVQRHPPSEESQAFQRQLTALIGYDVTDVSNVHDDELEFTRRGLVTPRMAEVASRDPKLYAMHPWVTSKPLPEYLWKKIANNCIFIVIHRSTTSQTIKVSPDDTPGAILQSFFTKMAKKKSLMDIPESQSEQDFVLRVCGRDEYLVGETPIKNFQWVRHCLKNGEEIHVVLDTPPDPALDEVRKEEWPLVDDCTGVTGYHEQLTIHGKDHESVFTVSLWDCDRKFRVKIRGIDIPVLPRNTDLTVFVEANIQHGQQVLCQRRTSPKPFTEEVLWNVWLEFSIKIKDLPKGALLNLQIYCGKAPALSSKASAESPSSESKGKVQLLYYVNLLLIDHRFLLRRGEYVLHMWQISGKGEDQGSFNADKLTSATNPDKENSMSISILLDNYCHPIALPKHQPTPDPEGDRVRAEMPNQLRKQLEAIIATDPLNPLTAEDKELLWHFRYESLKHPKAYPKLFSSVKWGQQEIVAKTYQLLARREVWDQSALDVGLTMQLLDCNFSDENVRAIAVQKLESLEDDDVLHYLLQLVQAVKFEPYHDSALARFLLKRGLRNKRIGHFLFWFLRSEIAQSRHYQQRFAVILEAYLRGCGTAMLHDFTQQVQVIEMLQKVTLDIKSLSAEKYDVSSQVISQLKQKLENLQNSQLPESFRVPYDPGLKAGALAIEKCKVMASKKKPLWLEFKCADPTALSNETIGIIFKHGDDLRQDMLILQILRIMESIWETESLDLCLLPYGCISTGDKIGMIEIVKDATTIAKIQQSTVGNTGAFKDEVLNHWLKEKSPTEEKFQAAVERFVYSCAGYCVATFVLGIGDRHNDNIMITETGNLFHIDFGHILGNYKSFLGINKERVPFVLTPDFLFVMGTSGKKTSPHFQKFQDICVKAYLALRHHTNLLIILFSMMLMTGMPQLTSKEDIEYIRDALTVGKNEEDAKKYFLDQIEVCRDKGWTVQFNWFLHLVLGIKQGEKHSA
Source text: (§1) In order to assess the ability of compounds to inhibit PI3K enzymes, especially PI3Kγ, a novel PI3K assay technology was established. The PI3K enzyme reaction product phosphatidylinositol 3,4,5-trisphosphate (PtdIns(3,4,5)P3) is detected using the pleckstrin homology (PH) domain from general receptor for phosphoinositides (GRP1) as probe. Thus, complexes form between GRP1 PH and PtdIns(3,4,5)P3, and if the lipid is biotinylated and the PH domain tagged with glutathion transferase (GST), the complexes can be detected using AlphaScreen® (PerkinElmer) technology. The signal generated by the complex between GRP1 PH-GST and PtdIns(3,4,5)P3-biotin can be quenched by introduction of non-biotinylated PtdIns(3,4,5)P3, forming the basis for an assay measuring the production of PtdIns(3,4,5)P3 by PI3K enzyme activity.
(§2) Biotinylated PtdIns(3,4,5)P3 was detected using AlphaScreen® technology. Detection was in 384-well microplates in 50 mM Hepes, pH7.4, 50 mM NaCl and 0.1% BSA. The biotinylated, short chain (diC8) phosphoinositide and GRP1 PH-GST were added at 15 nM and 3.75 nM, respectively. Donor and acceptor AlphaScreen® beads (Perkin Elmer) were added at 5 μg/ml to a final volume of 50 μl. Plates were incubated in the dark for 5 hours to ensure binding was complete and then read in an AlphaQuest AD instrument (Perkin Elmer) using standard settings.
(§3) The GRP1 PH domain (amino acids 263 to 380) was PCR cloned from a mouse brain cDNA library (Stratagene), expressed in E. coli and purified using standard protocols. Lipids were from Echelon Research Laboratories, Salt Lake City, Utah, or Cell Signals Inc., Lexington, Ky., USA.
(§4) The assay used AlphaScreen® based detection of PI(3,4,5)P3 (Gray et al., Anal. Biochem., 2003, 313, 234-245) to determine the ability of test compounds to inhibit phosphorylation of recombinant PI3Ks of PI(4,5)P2.
(§5) DNA fragments encoding human PI3K catalytic and regulatory subunits were isolated from cDNA libraries using standard molecular biology and PCR cloning techniques. The selected DNA fragments were used to generate baculovirus expression vectors. In particular, full length DNA of each of the p110α, p110β and p110δ Type Ia human PI3K p110 isoforms (EMBL Accession Nos. HSU79143, S67334, Y10055 for p110α, p110β and p110δ, respectively) were sub-cloned into a pDEST10 vector (Invitrogen Limited, Fountain Drive, Paisley, UK). The vector is a Gateway-adapted version of Fastbac1 containing a 6-His epitope tag. The full length human p85 (regulatory subunit (EMBL Accession No. HSP13KIN) was also sub-cloned into pFastBac1 vector containing a 6-His epitope tag. The Type Ia p110 constructs were co-expressed with the p85α regulatory subunit. Residues 2-1102 of human PI3Kγ were inserted between the BamHI and Not1 cloning sites of the […] HTb vector for expression of His(6)-tagged (N-terminal), full length PI3Kγ in baculo virus infected Sf9 insect cells. Following expression in the baculovirus system using standard baculovirus expression techniques, expressed proteins were purified using standard His epitope tag purification techniques.
(§6) Standard enzyme reactions were performed in 50 mM Hepes, pH7.4, 50 mM NaCl, […], 5 mM DTT and 0.05% CHAPS containing 40 μM ATP, 40 μM diC8 PtdIns(4,5)P2 and 2-20 ng of Type 1 PI3K in a total volume of 20 μl. The reaction was stopped by the addition of 10 μl of EDTA/diC6 PtdIns(3,4,5)P3-biotin followed by 20 μl of GRP1 PH-GST/AlphaScreen beads both in 50 mM Hepes, pH7.4, 50 mM NaCl and 0.1% BSA. Final concentrations were 50 mM EDTA, 15 nM biotinylated diC6PtdIns(3,4,5)P3, 3.75 nM GRP1 PH-GST and 5 μg/ml of AlphaScreen beads. Inhibitors were added to dry wells in […] of 100% DMSO giving a final DMSO concentration of 2.5% in the assay. Control wells contained 2.5% DMSO in the absence of test compound. Inhibition of PI3K by test compounds was expressed as an IC50 value.

[2] = target: T2, p110α Type Ia human PI3K (Homo sapiens, UniProt P42336)
T2 construct: full length DNA of each of the p110α, p110β and p110δ Type Ia human PI3K p110 isoforms; 6-His; made in house; host or cells: baculovirus expression system (Sf9 is named only for PI3Kγ)
T2 sequence (P42336 whole entry, canonical isoform): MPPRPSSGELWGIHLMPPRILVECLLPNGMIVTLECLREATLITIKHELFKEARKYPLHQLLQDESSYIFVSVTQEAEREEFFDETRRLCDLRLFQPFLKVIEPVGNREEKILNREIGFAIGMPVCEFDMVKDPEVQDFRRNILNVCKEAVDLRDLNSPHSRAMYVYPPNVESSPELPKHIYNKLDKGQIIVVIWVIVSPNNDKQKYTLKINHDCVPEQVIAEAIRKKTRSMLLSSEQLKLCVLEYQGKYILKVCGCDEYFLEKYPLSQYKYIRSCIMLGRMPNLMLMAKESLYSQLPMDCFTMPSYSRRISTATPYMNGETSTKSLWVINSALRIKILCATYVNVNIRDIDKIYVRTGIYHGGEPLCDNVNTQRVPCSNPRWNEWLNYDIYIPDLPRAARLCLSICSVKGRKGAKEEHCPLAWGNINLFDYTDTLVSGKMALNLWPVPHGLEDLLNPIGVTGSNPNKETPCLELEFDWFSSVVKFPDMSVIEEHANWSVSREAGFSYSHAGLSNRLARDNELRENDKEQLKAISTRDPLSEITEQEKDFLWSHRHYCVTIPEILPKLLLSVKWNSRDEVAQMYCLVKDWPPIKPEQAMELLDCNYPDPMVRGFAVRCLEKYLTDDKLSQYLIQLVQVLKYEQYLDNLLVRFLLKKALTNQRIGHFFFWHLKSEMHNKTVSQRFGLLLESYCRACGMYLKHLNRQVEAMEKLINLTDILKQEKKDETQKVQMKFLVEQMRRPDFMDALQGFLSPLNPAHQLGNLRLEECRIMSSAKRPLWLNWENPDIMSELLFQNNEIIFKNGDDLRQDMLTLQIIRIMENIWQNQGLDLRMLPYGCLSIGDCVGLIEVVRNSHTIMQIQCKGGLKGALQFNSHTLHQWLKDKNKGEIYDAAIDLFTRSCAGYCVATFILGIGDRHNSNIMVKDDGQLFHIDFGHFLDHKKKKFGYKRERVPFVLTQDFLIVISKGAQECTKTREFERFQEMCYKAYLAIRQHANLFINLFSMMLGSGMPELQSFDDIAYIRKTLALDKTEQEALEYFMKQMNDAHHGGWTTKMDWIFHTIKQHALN
T2 sequence (P27986 whole entry partner, canonical isoform): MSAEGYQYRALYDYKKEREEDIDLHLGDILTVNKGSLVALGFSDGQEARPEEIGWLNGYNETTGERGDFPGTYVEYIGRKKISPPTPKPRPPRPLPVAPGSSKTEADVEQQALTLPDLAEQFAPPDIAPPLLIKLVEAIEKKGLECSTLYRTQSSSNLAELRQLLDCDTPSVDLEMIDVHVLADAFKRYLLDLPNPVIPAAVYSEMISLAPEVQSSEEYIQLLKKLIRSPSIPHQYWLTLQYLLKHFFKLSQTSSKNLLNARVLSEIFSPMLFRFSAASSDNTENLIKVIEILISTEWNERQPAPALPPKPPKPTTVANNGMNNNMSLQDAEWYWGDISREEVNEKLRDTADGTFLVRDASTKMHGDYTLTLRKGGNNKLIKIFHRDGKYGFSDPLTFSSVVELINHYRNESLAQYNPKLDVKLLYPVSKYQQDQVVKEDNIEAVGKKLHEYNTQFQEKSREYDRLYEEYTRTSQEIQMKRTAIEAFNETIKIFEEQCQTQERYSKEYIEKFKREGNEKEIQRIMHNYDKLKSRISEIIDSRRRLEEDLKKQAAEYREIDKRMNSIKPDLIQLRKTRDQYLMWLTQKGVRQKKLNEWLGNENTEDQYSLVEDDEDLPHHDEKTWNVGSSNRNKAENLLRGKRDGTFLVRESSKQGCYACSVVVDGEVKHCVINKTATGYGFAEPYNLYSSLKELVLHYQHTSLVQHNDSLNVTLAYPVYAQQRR
Source text: as §1, §2, §3, §4, §5, §6

[3] = target: T3, p110δ Type Ia human PI3K (Homo sapiens, UniProt O00329)
T3 construct: full length DNA of each of the p110α, p110β and p110δ Type Ia human PI3K p110 isoforms; 6-His; made in house; host or cells: baculovirus expression system (Sf9 is named only for PI3Kγ)
T3 sequence (O00329 whole entry, canonical isoform): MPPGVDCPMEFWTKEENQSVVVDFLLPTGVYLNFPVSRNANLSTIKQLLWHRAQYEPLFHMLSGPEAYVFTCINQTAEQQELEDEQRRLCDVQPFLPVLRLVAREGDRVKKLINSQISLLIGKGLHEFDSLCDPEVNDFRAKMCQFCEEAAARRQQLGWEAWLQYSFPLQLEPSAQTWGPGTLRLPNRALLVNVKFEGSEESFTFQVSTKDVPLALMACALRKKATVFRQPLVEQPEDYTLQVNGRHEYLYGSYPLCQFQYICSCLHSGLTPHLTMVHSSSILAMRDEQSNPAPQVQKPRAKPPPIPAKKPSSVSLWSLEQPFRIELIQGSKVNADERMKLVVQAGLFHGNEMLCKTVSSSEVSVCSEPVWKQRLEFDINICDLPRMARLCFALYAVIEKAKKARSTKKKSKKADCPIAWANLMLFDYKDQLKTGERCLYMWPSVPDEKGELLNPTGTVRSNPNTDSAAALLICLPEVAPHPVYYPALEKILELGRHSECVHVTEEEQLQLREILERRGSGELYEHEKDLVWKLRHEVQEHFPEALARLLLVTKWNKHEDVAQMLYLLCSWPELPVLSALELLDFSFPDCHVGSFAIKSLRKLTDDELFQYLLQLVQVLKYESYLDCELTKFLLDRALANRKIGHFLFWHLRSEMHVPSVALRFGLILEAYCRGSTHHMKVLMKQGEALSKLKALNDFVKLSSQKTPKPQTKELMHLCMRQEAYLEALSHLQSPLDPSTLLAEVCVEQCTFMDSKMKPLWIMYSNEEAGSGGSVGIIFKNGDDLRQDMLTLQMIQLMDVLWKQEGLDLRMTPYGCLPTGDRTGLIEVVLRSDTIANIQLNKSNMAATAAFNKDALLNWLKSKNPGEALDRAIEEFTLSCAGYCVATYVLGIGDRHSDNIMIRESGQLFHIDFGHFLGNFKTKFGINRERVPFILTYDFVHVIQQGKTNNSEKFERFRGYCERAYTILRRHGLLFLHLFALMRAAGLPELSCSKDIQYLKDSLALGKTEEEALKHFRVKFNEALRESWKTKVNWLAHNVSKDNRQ
T3 sequence (P27986 whole entry partner, canonical isoform): as the sequence (P27986 whole entry partner, canonical isoform) above
Source text: as §1, §2, §3, §4, §5, §6

[4] = target: T4, p110β Type Ia human PI3K (Homo sapiens, UniProt P42338)
T4 construct: full length DNA of each of the p110α, p110β and p110δ Type Ia human PI3K p110 isoforms; 6-His; made in house; host or cells: baculovirus expression system (Sf9 is named only for PI3Kγ)
T4 sequence (P42338 whole entry, canonical isoform): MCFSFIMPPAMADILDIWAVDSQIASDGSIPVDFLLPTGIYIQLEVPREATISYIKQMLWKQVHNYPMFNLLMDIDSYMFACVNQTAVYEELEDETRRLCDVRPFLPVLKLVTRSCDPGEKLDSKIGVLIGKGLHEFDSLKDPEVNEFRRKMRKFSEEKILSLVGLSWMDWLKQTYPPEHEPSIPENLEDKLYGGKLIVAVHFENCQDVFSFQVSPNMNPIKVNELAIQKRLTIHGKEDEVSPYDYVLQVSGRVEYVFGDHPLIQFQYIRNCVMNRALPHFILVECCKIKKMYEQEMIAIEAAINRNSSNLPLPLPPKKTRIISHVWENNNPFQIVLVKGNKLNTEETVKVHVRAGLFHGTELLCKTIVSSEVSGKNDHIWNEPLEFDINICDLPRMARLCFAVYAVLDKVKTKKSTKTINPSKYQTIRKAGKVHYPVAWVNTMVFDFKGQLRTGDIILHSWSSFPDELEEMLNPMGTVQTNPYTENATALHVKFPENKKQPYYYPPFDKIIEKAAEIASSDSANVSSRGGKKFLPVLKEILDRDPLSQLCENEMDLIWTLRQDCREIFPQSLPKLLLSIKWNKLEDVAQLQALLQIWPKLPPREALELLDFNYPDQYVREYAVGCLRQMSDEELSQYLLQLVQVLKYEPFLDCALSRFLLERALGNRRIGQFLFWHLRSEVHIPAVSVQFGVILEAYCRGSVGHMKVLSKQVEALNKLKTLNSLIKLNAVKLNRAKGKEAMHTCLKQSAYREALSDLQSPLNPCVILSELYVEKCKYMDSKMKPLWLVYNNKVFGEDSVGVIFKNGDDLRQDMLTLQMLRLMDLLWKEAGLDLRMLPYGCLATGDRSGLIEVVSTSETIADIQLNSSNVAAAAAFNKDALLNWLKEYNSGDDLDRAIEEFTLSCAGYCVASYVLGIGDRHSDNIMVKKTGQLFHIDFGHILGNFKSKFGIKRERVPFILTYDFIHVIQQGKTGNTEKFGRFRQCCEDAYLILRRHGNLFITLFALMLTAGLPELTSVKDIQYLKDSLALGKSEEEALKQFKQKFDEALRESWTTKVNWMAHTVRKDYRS
T4 sequence (P27986 whole entry partner, canonical isoform): as the sequence (P27986 whole entry partner, canonical isoform) above
Source text: as §1, §2, §3, §4, §5, §6

| Compound | IC50 [1] | IC50 [2] | IC50 [3] | IC50 [4] |
| --- | --- | --- | --- | --- |
| CC(=O)Nc1nc(C)c(-c2cnc(Cl)c(S(C)(=O)=O)c2)s1 [Example 7, N-[5-(6-Chloro-5-methylsulfonyl-pyridin-3-yl)-4-methyl-1,3-thiazol-2-yl]acetamide] | 0.22 µM | 0.42 µM | 0.15 µM | 0.74 µM |
| CC(=O)Nc1nc(C)c(-c2cncc(S(=O)(=O)NCCO)c2)s1 [Example 8, N-{5-[5-(2-Hydroxyethylaminosulfonyl)pyridin-3-yl]-4-methyl-1,3-thiazol-2-yl}acetamide] | 0.4 µM | 0.57 µM | 0.2 µM | 1.89 µM |
| CC(=O)Nc1nc(C)c(-c2cnc(Cl)c(NS(=O)(=O)CCCN3CCN(C)CC3)c2)s1 [Example 31, N-(5-{6-Chloro-5-[3-(4-methylpiperazin-1-yl)propylsulfonylamino]pyridin-3-yl}-4-methyl-1,3-thiazol-2-yl)acetamide bis(trifluoroacetate)] | 0.16 µM | 0.05 µM | 0.01 µM | 0.25 µM |
| CC(=O)Nc1nc(C)c(-c2cnc(Cl)c(NCc3ccccc3)c2)s1 [Example 46, N-{5-[5-(Benzylamino)-6-chloropyridin-3-yl]-4-methyl-1,3-thiazol-2-yl}acetamide] | 0.12 µM | 0.28 µM | 0.2 µM | 0.63 µM |
| COCC(=O)Nc1nc(C)c(-c2cnc(Cl)c(NS(=O)(=O)c3ccccc3)c2)s1 [Example 56, N-[5-(5-Benzenesulfonylamino-6-chloropyridin-3-yl)-4-methyl-1,3-thiazol-2-yl]-2-methoxyacetamide] | 0.26 µM | 0.23 µM | < 0.1 µM | 0.12 µM |
